From PubChem BioAssay AID1845216 (Molecular Pharmacology Branch, DTP, NCI, 2023)

System: SW 982 tumor spheroid viability
Assay: Anticancer human tumor SW 982 cell line growth inhibition;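 further: spheroids exposed to compound for 7 days before readout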
Conditions: spheroids with HUVEC and MSC; for IC50: curve of first compound; for viability, T/C: stronger effect = lower value
Procedure, shortened: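 Single agents and combinations were tested on spheroids built from tumor cells plus HUVEC and hMSC, at half-log dilutions starting at or near clinical Cmax, else 10 microM; final DMSO 0.25% (v/v).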

[1] = second compound 1 µM, first compound 0.00949 µM
[2] = second compound 1 µM, first compound 0.03 µM
[3] = second compound 1 µM, first compound 0.0949 µM
[4] = second compound 1 µM, first compound 0.3 µM
[5] = second compound 1 µM, first compound 0.949 µM
[6] = second compound 1 µM, first compound 3 µM
[7] = second compound 3.16 µM, first compound 0.00949 µM
[8] = second compound 3.16 µM, first compound 0.03 µM
[9] = second compound 3.16 µM, first compound 0.0949 µM
[10] = second compound 3.16 µM, first compound 0.3 µM
[11] = second compound 3.16 µM, first compound 0.949 µM
[12] = second compound 3.16 µM, first compound 3 µM
[13] = second compound 10 µM, first compound 0.00949 µM
[14] = second compound 10 µM, first compound 0.03 µM
[15] = second compound 10 µM, first compound 0.0949 µM
[16] = second compound 10 µM, first compound 0.3 µM
[17] = second compound 10 µM, first compound 0.949 µM
[18] = second compound 10 µM, first compound 3 µM
[19] = second compound 31.6 µM, first compound 0.00949 µM
[20] = second compound 31.6 µM, first compound 0.03 µM
[21] = second compound 31.6 µM, first compound 0.0949 µM
[22] = second compound 31.6 µM, first compound 0.3 µM
[23] = second compound 31.6 µM, first compound 0.949 µM
[24] = second compound 31.6 µM, first compound 3 µM
[25] = second compound 100 µM, first compound 0.00949 µM
[26] = second compound 100 µM, first compound 0.03 µM
[27] = second compound 100 µM, first compound 0.0949 µM
[28] = second compound 100 µM, first compound 0.3 µM
[29] = second compound 100 µM, first compound 0.949 µM
[30] = second compound 100 µM, first compound 3 µM

SMILES | IC50 (second compound 1 µM) [nM] | IC50 (second compound 3.16 µM) [nM] | IC50 (second compound 10 µM) [nM] | IC50 (second compound 31.6 µM) [nM] | IC50 (second compound 100 µM) [nM] | viability, T/C [1] [%] | viability, T/C [2] [%] | viability, T/C [3] [%] | viability, T/C [4] [%] | viability, T/C [5] [%] | viability, T/C [6] [%] | viability, T/C [7] [%] | viability, T/C [8] [%] | viability, T/C [9] [%] | viability, T/C [10] [%] | viability, T/C [11] [%] | viability, T/C [12] [%] | viability, T/C [13] [%] | viability, T/C [14] [%] | viability, T/C [15] [%] | further results
CNCc1ccc(-c2cc(-c3nc(-c4ccc(S(=O)(=O)C(C)C)cc4)cnc3N)on2)cc1 + Cn1nnc2c(C(N)=O)ncn2c1=O | 219 | 228 | 160 | 109 | 53.4 | 95.6 | 89.3 | 75.1 | 38 | 28.6 | 14.7 | 92.9 | 87.2 | 68.8 | 39.5 | 29.8 | 9.23 | 72.7 | 71.9 | 60 | viability, T/C [16]: 35.3%; viability, T/C [17]: 26.7%; viability, T/C [18]: 8.84%; viability, T/C [19]: 69%; viability, T/C [20]: 67.7%; viability, T/C [21]: 51.6%; viability, T/C [22]: 31.7%; viability, T/C [23]: 23.1%; viability, T/C [24]: 8.96%; viability, T/C [25]: 63.5%; viability, T/C [26]: 58.8%; viability, T/C [27]: 43.5%; viability, T/C [28]: 28.1%; viability, T/C [29]: 22.7%; viability, T/C [30]: 5.36%
Cn1ncnc1[C@H]1c2n[nH]c(=O)c3cc(F)cc(c23)N[C@@H]1c1ccc(F)cc1 + Cn1nnc2c(C(N)=O)ncn2c1=O | > 3000 | > 3000 | > 3000 | 1080 | < 9.49 | 90.9 | 88.5 | 86.6 | 89.2 | 79 | 69.9 | 89.8 | 62.1 | 79.3 | 73 | 77.3 | 59.9 | 70.4 | 69.5 | 60 | viability, T/C [16]: 64.3%; viability, T/C [17]: 60%; viability, T/C [18]: 50.3%; viability, T/C [19]: 56%; viability, T/C [20]: 55.7%; viability, T/C [21]: 53%; viability, T/C [22]: 55.5%; viability, T/C [23]: 50.1%; viability, T/C [24]: 43.9%; viability, T/C [25]: 44.5%; viability, T/C [26]: 44.9%; viability, T/C [27]: 48.1%; viability, T/C [28]: 44%; viability, T/C [29]: 39.8%; viability, T/C [30]: 39.7%
